Key:
[1] = tested on: VEGF-expressing, murine endothelial cells (MS-1 VEGF, ATCC); assay: Photodynamic cell viability by trypan blue exclusion; format: cell-based; conditions: for cell viability (trypan blue exclusion) compared with Dulbecco's PBS controls: laser-exposed (647 nm, 56.5 J/cm), verteporfin 40 μg/ml, P<0.0001
Procedure: FIG. 3 is a graph showing the mean percent cell viability by trypan blue exclusion over eight experimental runs in 24-well culture plates for VEGF-expressing endothelial cells in Dulbecco's phosphate buffered saline (“DPBS”), cells incubated with verteporfin ([sequence]) at 40 μg/ml (“Verteporfin”), and cells incubated with verteporfin ([sequence]) conjugated to anti-VEGF antibody (“Conjugate”). Error bars indicate 1 standard deviation from the mean. The cells received either no laser treatment or were exposed to krypton-ion CW laser (647 nm) at a total light dosage of 56.5 J/cm for either 1 hour (left) or 24 hours (right).
Experiments were conducted in a line of cultured, VEGF-expressing, murine erdothelial cells (MS-1 VEGF, ATCC). Cells were grown in 24-well culture plates under standard cell culture conditions in Dulbecco's minimal essential medium (DMEM) with 10% fetal calf serum. Cells were incubated for one hour with either phosphate buffered saline solution alone, verteporfin at 40 μg/ml, or verteporfin-anti-VEGF antibody conjugate (FIG. 2A). All cells were washed twice with phosphate buffered saline following incubation to remove unbound photosensitizer. The photosensitizer was excited by exposing selected wells to the krypton-ion CW laser (647 nm) at a total light dosage of 56.5 J/cm, which is the recommended ophthalmic light dosage (FIG. 2A). For each treatment condition, there were laser-exposed and non-exposed groups. Following laser exposure, cells were incubated for either 1 or 24 hours, and cell viability was assessed using trypan blue exclusion.

[2] = tested on: MS-1 vascular endothelial cells; assay: Binding kinetics: fluorescence intensity of labeled MS-1 cells in confocal micrographs; format: cell-based, murine; conditions: within the first 10 minutes of labeling (FIG. 7)
Procedure: FIG. 7 is a graph of fluorescence intensity of conjugate-labeled and VISUDYNE-labeled MS-1 vascular endothelial cells as a function of incubation time. The fluorescence intensity of confocal micrographs was determined with the “histogram” analysis tool of the ImagePro image processing software program (Media Cybernetics; Silver Springs, Md.). Intensity is expressed as the accumulated pixel counts in the image.
In order to provide a more quantitative comparison of the binding kinetics of the conjugate and the native VISUDYNE, the fluorescence intensity of the MS-1 cells labeled for varying durations was measured in a series of confocal micrographs using the “histogram” tool of ImagePro image processing program (Media Cybernetics; Silver Springs, Md.). […] Accordingly, if the laser activation were to be applied within 10 minutes of application of the conjugate, essentially maximum photodynamic effect would be realized. Targets not expressing the VEGF factor would not be as strongly labeled. This improved selectivity of the conjugate for VEGF-expressing targets is a distinct advantage over the native VISUDYNE.

## verteporfin
[1]; 1 hour after laser
  cell viability (trypan blue exclusion) compared with Dulbecco's PBS controls: large losses of viability
[1]; 24 hours after laser
  cell viability (trypan blue exclusion) compared with Dulbecco's PBS controls: large losses of viability
[1]; no laser, possible toxicity or low-level activation by ambient light
  cell viability without laser exposure: reduced viability
[2]
  binding to the target cells (fluorescence intensity): approximately 50 % of maximum binding

From patent US20060231107A1, “Antibody-targeted photodynamic therapy” (priority 2003, published 2006)
